{"source": "patent US6159733A", "about": "“Method for photoinactivating malignant cells” (priority 1996, dated 2000)", "key": {"[1]": {"tested_on": "cell lines and bone marrow samples", "assay": "Uptake of Pc 4", "assay_type": "cell-based, murine", "procedure": "Photosensitization. Aliquots of a 1.87 mM Pc 4 (kindly provided by Dr. M. E. Kenney) stock solution in dimethyl sulfoxide were kept at -80° C. in autoclaved brown glass vials. Immediately prior to the photosensitization, Pc4 was thawed and diluted in dimethyl formamide to yield a 10 μM working solution. […] Pc 4 was used at 15 nM throughout the experiments."}, "BFU-E": {"tested_on": "BFU-E", "settings": "15 nM Pc 4, 5×10^6 cells/mL, 8 J/cm^2; cited from earlier work"}, "[2]": {"tested_on": "multidrug resistance (mdr) pump", "assay": "Uptake of Pc 4 by BM in presence of verapamil", "procedure": "Uptake of Pc 4. Following a two hour incubation at 37° C. with 15 nM Pc 4, cell line and BM samples were analyzed for Pc 4 uptake by flow cytometry. BM samples were first incubated with anti-c-kit^PE (Pharmingen) and anti-Sca-1^FITC (Pharmingen), to allow analysis of the Pc 4 uptake in the committed progenitor fraction (c-kit^+,Sca-1^-) and the pluripotent stem cell fraction (c-kit^+,Sca-1^+) (Li, C. L. and G. R. Johnson Blood 85:1472 (1995)). Following a 20 minute incubation on ice, and two subsequent washes, the samples were incubated with 15 nM Pc 4. The relative Pc 4 uptake was calculated by subtracting the mean fluorescence signals of the untreated control samples from the mean Pc 4 fluorescence signals."}, "viruses": {"tested_on": "viruses", "settings": "blood products; cited from earlier work"}, "L1210 cells": {"tested_on": "L1210 cells", "assay": "Uptake of Pc 4 in mixtures of BM and cell lines", "assay_type": "cell-based, murine", "procedure": "(§1) In mixing experiments, aliquots of Ly-5.2 BM and cell lines samples were mixed at different ratios. The combined cell concentration of each sample was 1.5×10^7 cells/mL. […] The cell lines were stained with anti-Ly-5.1^FITC. This treatment allowed clear resolution of the relatively small ABE-8.1/2 and BC3A cells from the bone marrow granulocytes. Immediately prior to the analyses, propidium iodide (PI, 0.5 μg/mL) was added to the samples to allow exclusion of dead cells (PI^+) from the analyses. The samples were analyzed in a FACStar^PLUS (BD) that was equipped with an argon ion laser tuned to 488 nm (200 mW) and a dye laser tuned to 610 nm (300 mW). FITC, PE, PI and Pc 4 fluorescence emissions were collected through 530/30, 575/42, 660/10, 670/10 nm band pass filters, respectively."}, "ABE-8.1/2 cells": {"tested_on": "ABE-8.1/2 cells", "assay": "Uptake of Pc 4 in mixtures of BM and cell lines", "assay_type": "cell-based, murine", "procedure": "as §1"}, "P815 cells": {"tested_on": "P815 cells", "assay": "Uptake of Pc 4 in mixtures of BM and cell lines", "assay_type": "cell-based, murine", "procedure": "as §1"}, "BM progenitors (c-kit^+)": {"tested_on": "BM progenitors (c-kit^+)", "assay": "Uptake of Pc 4 in mixtures of BM and cell lines", "assay_type": "cell-based, murine", "procedure": "as §1"}, "BC3A cells": {"tested_on": "BC3A cells", "assay": "Uptake of Pc 4 in mixtures of BM and cell lines", "assay_type": "cell-based, murine", "settings": "for Pc 4 content in cell line: BM/BC3A", "procedure": "as §1"}, "SK-BR3": {"tested_on": "SK-BR3", "settings": "15 nM Pc 4, 5×10^6 cells/mL, 8 J/cm^2; cited from earlier work"}, "[3]": {"settings": "versus 1.5×10^7 cells/mL without BM"}}, "data": [{"compound": "CN(C)CCC[Si](C)(C)O[Si]1(O)n2c3c4ccccc4c2N=C2N=C(N=c4c5ccccc5c(n41)=NC1=NC(=N3)c3ccccc31)c1ccccc12", "note": "(centres unmarked) [Pc 4, hydroxysiloxy-dimethylpropyl-N-dimethyl silicon phthalocyanine]", "values": [{"measurement": "dependence of Pc 4 uptake on cell concentration", "setting": "[1]; all cell types, 15 nM", "result": "inversely correlated with the cell concentration"}, {"measurement": "cellular Pc 4 concentration in BM fractions relative to cell lines", "setting": "[1]; committed progenitors and pluripotent stem cells, corrected for cell volume", "result": "almost twice"}, {"measurement": "time to complete uptake", "setting": "[1]; murine BM samples", "result": "complete after two hours"}, {"measurement": "surviving fraction of human cells", "setting": "BFU-E", "result": 0.9}, {"measurement": "effect of verapamil on uptake of Pc 4", "setting": "[2]; BM samples, verapamil during incubation", "result": "did not increase the uptake"}, {"measurement": "comparison with BPD-DA and benzochlorin", "setting": "[2]; application with samples containing mdr^+ leukemic cells", "result": "compared favorable to BPD-DA"}, {"measurement": "substrate of the multidrug resistance pump", "setting": "[2]; murine pluripotent stem cells", "result": "not a substrate"}, {"measurement": "photoinactivation of viruses", "setting": "viruses", "result": "effectively photoinactivate"}, {"measurement": "Pc 4 content in cell line", "setting": "L1210 cells; BM/L1210, BM fraction 0.50", "result": 153, "unit": "Mean fluorescence/cell"}, {"measurement": "Pc 4 content in cell line", "setting": "L1210 cells; BM/L1210, BM fraction 0.70", "result": 189, "unit": "Mean fluorescence/cell"}, {"measurement": "Pc 4 content in cell line", "setting": "L1210 cells; BM/L1210, BM fraction 0.80", "result": 210, "unit": "Mean fluorescence/cell"}, {"measurement": "Pc 4 content in cell line", "setting": "L1210 cells; BM/L1210, BM fraction 0.90", "result": 242, "unit": "Mean fluorescence/cell"}, {"measurement": "Pc 4 content in cell line", "setting": "L1210 cells; BM/L1210, BM fraction 0.95", "result": 260, "unit": "Mean fluorescence/cell"}, {"measurement": "Pc 4 uptake in mixtures versus cell line alone", "setting": "L1210 cells; [3]", "result": "contained more Pc 4"}, {"measurement": "Pc 4 uptake in mixtures versus cell line alone", "setting": "ABE-8.1/2 cells; BM fraction<0.9, versus without BM", "result": "lower"}, {"measurement": "Pc 4 content in cell line", "setting": "ABE-8.1/2 cells; BM/ABE-8.1/2, BM fraction 0.50", "result": 74, "unit": "Mean fluorescence/cell"}, {"measurement": "Pc 4 content in cell line", "setting": "ABE-8.1/2 cells; BM/ABE-8.1/2, BM fraction 0.70", "result": 86, "unit": "Mean fluorescence/cell"}, {"measurement": "Pc 4 content in cell line", "setting": "ABE-8.1/2 cells; BM/ABE-8.1/2, BM fraction 0.80", "result": 91, "unit": "Mean fluorescence/cell"}, {"measurement": "Pc 4 content in cell line", "setting": "ABE-8.1/2 cells; BM/ABE-8.1/2, BM fraction 0.90", "result": 95, "unit": "Mean fluorescence/cell"}, {"measurement": "Pc 4 content in cell line", "setting": "ABE-8.1/2 cells; BM/ABE-8.1/2, BM fraction 0.95", "result": 100, "unit": "Mean fluorescence/cell"}, {"measurement": "Pc 4 content in cell line", "setting": "P815 cells; BM/P815, BM fraction 0.50", "result": 205, "unit": "Mean fluorescence/cell"}, {"measurement": "Pc 4 content in cell line", "setting": "P815 cells; BM/P815, BM fraction 0.70", "result": 241, "unit": "Mean fluorescence/cell"}, {"measurement": "Pc 4 content in cell line", "setting": "P815 cells; BM/P815, BM fraction 0.80", "result": 270, "unit": "Mean fluorescence/cell"}, {"measurement": "Pc 4 content in cell line", "setting": "P815 cells; BM/P815, BM fraction 0.90", "result": 312, "unit": "Mean fluorescence/cell"}, {"measurement": "Pc 4 content in cell line", "setting": "P815 cells; BM/P815, BM fraction 0.95", "result": 335, "unit": "Mean fluorescence/cell"}, {"measurement": "Pc 4 uptake in mixtures versus cell line alone", "setting": "P815 cells; [3]", "result": "contained more Pc 4"}, {"measurement": "Pc 4 content in c-kit^+ BM", "setting": "BM progenitors (c-kit^+); BM/ABE-8.1/2, BM fraction 0.50", "result": 48, "unit": "Mean fluorescence/cell"}, {"measurement": "Pc 4 content in c-kit^+ BM", "setting": "BM progenitors (c-kit^+); BM/ABE-8.1/2, BM fraction 0.70", "result": 52, "unit": "Mean fluorescence/cell"}, {"measurement": "Pc 4 content in c-kit^+ BM", "setting": "BM progenitors (c-kit^+); BM/ABE-8.1/2, BM fraction 0.80", "result": 49, "unit": "Mean fluorescence/cell"}, {"measurement": "Pc 4 content in c-kit^+ BM", "setting": "BM progenitors (c-kit^+); BM/ABE-8.1/2, BM fraction 0.90", "result": 55, "unit": "Mean fluorescence/cell"}, {"measurement": "Pc 4 content in c-kit^+ BM", "setting": "BM progenitors (c-kit^+); BM/ABE-8.1/2, BM fraction 0.95", "result": 62, "unit": "Mean fluorescence/cell"}, {"measurement": "Pc 4 content in c-kit^+ BM", "setting": "BM progenitors (c-kit^+); BM/BC3A, BM fraction 0.50", "result": 48, "unit": "Mean fluorescence/cell"}, {"measurement": "Pc 4 content in c-kit^+ BM", "setting": "BM progenitors (c-kit^+); BM/BC3A, BM fraction 0.70", "result": 53, "unit": "Mean fluorescence/cell"}, {"measurement": "Pc 4 content in c-kit^+ BM", "setting": "BM progenitors (c-kit^+); BM/BC3A, BM fraction 0.80", "result": 61, "unit": "Mean fluorescence/cell"}, {"measurement": "Pc 4 content in c-kit^+ BM", "setting": "BM progenitors (c-kit^+); BM/BC3A, BM fraction 0.90", "result": 68, "unit": "Mean fluorescence/cell"}, {"measurement": "Pc 4 content in c-kit^+ BM", "setting": "BM progenitors (c-kit^+); BM/BC3A, BM fraction 0.95", "result": 64, "unit": "Mean fluorescence/cell"}, {"measurement": "Pc 4 content in c-kit^+ BM", "setting": "BM progenitors (c-kit^+); BM/L1210, BM fraction 0.50", "result": 35, "unit": "Mean fluorescence/cell"}, {"measurement": "Pc 4 content in c-kit^+ BM", "setting": "BM progenitors (c-kit^+); BM/L1210, BM fraction 0.70", "result": 43, "unit": "Mean fluorescence/cell"}, {"measurement": "Pc 4 content in c-kit^+ BM", "setting": "BM progenitors (c-kit^+); BM/L1210, BM fraction 0.80", "result": 48, "unit": "Mean fluorescence/cell"}, {"measurement": "Pc 4 content in c-kit^+ BM", "setting": "BM progenitors (c-kit^+); BM/L1210, BM fraction 0.90", "result": 54, "unit": "Mean fluorescence/cell"}, {"measurement": "Pc 4 content in c-kit^+ BM", "setting": "BM progenitors (c-kit^+); BM/L1210, BM fraction 0.95", "result": 60, "unit": "Mean fluorescence/cell"}, {"measurement": "Pc 4 content in c-kit^+ BM", "setting": "BM progenitors (c-kit^+); BM/P815, BM fraction 0.50", "result": 45, "unit": "Mean fluorescence/cell"}, {"measurement": "Pc 4 content in c-kit^+ BM", "setting": "BM progenitors (c-kit^+); BM/P815, BM fraction 0.70", "result": 51, "unit": "Mean fluorescence/cell"}, {"measurement": "Pc 4 content in c-kit^+ BM", "setting": "BM progenitors (c-kit^+); BM/P815, BM fraction 0.80", "result": 64, "unit": "Mean fluorescence/cell"}, {"measurement": "Pc 4 content in c-kit^+ BM", "setting": "BM progenitors (c-kit^+); BM/P815, BM fraction 0.90", "result": 63, "unit": "Mean fluorescence/cell"}, {"measurement": "Pc 4 content in c-kit^+ BM", "setting": "BM progenitors (c-kit^+); BM/P815, BM fraction 0.95", "result": 64, "unit": "Mean fluorescence/cell"}, {"measurement": "Pc 4 content in c-kit^+ BM", "setting": "BM progenitors (c-kit^+); BM/WEHI-3, BM fraction 0.50", "result": 30, "unit": "Mean fluorescence/cell"}, {"measurement": "Pc 4 content in c-kit^+ BM", "setting": "BM progenitors (c-kit^+); BM/WEHI-3, BM fraction 0.70", "result": 38, "unit": "Mean fluorescence/cell"}, {"measurement": "Pc 4 content in c-kit^+ BM", "setting": "BM progenitors (c-kit^+); BM/WEHI-3, BM fraction 0.80", "result": 46, "unit": "Mean fluorescence/cell"}, {"measurement": "Pc 4 content in c-kit^+ BM", "setting": "BM progenitors (c-kit^+); BM/WEHI-3, BM fraction 0.90", "result": 58, "unit": "Mean fluorescence/cell"}, {"measurement": "Pc 4 content in c-kit^+ BM", "setting": "BM progenitors (c-kit^+); BM/WEHI-3, BM fraction 0.95", "result": 65, "unit": "Mean fluorescence/cell"}, {"measurement": "Pc 4 uptake of BM progenitor fractions in mixtures versus BM alone", "setting": "BM progenitors (c-kit^+); all mixtures (p>0.07)", "result": "lower, though not significantly"}, {"measurement": "Pc 4 content in cell line", "setting": "BC3A cells; BM fraction 0.50", "result": 104, "unit": "Mean fluorescence/cell"}, {"measurement": "Pc 4 content in cell line", "setting": "BC3A cells; BM fraction 0.70", "result": 26, "unit": "Mean fluorescence/cell"}, {"measurement": "Pc 4 content in cell line", "setting": "BC3A cells; BM fraction 0.80", "result": 138, "unit": "Mean fluorescence/cell"}, {"measurement": "Pc 4 content in cell line", "setting": "BC3A cells; BM fraction 0.90", "result": 153, "unit": "Mean fluorescence/cell"}, {"measurement": "Pc 4 content in cell line", "setting": "BC3A cells; BM fraction 0.95", "result": 166, "unit": "Mean fluorescence/cell"}, {"measurement": "Pc 4 uptake in mixtures versus cell line alone", "setting": "BC3A cells; [3]", "result": "contained more Pc 4"}, {"measurement": "surviving fraction of human cells", "setting": "SK-BR3", "result": "< 10^-5"}]}]}
